Values of other authors in US8309490B2, “Low VOC and stable plant growth regulator liquid and granule compositions” (Valent BioSciences Corporation, priority 2009, dated 2012).

Conditions: at 25° C.

O=C(Nc1ccccc1)Nc1ccnc(Cl)c1 [CPPU, forchlorfenuron]
water solubility: 39 ppm
